Results from US20180022780A1, “STABILIZATION ADRENOMEDULLIN DERIVATIVES AND USE THEREOF” (priority 2014, published 2018).
Bridge positions count the residues as written; N and C are the ends. Square brackets hold non-standard residues; d marks the D form. Peptide text beside a SMILES is read from it. Orn = NCCC[C@H](N)C(=O)O; Dab = NCC[C@H](N)C(=O)O; Dap = NC[C@H](N)C(=O)O

Columns and labels:
[1] = target: T1, human adrenomedullin-receptor (Homo sapiens, UniProt O60895+Q16602); experiment: Tests on a recombinant adrenomedullin-receptor reporter cell (CHO, aequorin luminescence); format: cell-based; settings: Table 1, CHO cell line carrying the human adrenomedullin-receptor
T1 construct: expressed in transfected cells; host or cells: CHO (Chinese hamster ovary) recombinant reporter cell line with aequorin
Description: Activation of the receptor by ligands was measured by aequorin luminescence. Construction of the cell line and measurement procedure has been described in detail [Wunder F., Rebmann A., Geerts A, and Kalthof B., Mol Pharmacol, 73, 1235-1243 (2008)]. In brief: Cells were seeded on opaque 384-well microtiter plates at a density of 4000 cells/well and were grown for 24 h. After removal of culture medium, cells were loaded for 3 h with 0.6 μg/ml coelenterazine in Ca^2+-free Tyrode solution (130 mM sodium chloride, 5 mM potassium chloride, 20 mM HEPES (4-(2-hydroxyethyl)-1-piperazineethanesulfonic acid), 1 mM magnesium chloride, and 4.8 mM sodium hydrogen carbonate, pH 7.4) supplemented with 0.2 mM 3-Isobutyl-1-methylxanthine (IBMX) in a cell culture incubator. Examples were added for 6 min in calcium^2+-free Tyrode solution containing 0.1% bovine serum albumin. Immediately before adding calcium^2+ to a final concentration of 3 mM measurement of the aequorin luminescence was started by use of a suitable luminometer. Luminescence was measured for 60 s. In a typical experiment compounds were tested in a concentration range of 1×10^−13 to 3×10^−6 M.

[2] = target: T2, CLR fused to EYFP and RAMP2 fused to ECFP (Homo sapiens, UniProt O60895+Q16602); experiment: cAMP assay (CRE luciferase reporter, HEK-293 cells transiently co-transfected with CLR and RAMP2); format: cell-based; settings: Table 2, cAMP assay; HEK-293, CLR/RAMP2, CRE luciferase, 3 h stimulation, normalized to [G^14]ADM(14-52)
T2 construct: EYFP; ECFP; expressed in transfected cells; host or cells: HEK-293 cells, transient co-transfection
Method in brief: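 HEK-293 cells transiently co-transfected with CLR-EYFP, RAMP2-ECFP and a CRE-luc2P luciferase reporter were stimulated with ligands (eight concentrations, triplicate) for 3 h at 37 °C. Luminescence was corrected to 5 µM forskolin, normalized to [G^14]ADM(14-52) standard, and fitted by non-linear regression to dose-response curves.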

T1 sequence (Q16602 23-461): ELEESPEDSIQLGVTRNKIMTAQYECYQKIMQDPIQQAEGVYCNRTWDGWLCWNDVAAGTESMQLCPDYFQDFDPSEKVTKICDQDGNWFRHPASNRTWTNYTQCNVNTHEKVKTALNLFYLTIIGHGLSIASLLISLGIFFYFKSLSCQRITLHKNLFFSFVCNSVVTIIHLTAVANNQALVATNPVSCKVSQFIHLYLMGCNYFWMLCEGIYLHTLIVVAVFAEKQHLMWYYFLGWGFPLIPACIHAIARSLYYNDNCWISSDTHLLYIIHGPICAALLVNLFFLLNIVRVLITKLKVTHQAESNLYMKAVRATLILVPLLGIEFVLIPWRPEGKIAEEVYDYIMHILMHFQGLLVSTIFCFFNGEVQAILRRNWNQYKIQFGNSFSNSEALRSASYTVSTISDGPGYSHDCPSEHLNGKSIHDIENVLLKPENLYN
T1 sequence (O60895 43-175): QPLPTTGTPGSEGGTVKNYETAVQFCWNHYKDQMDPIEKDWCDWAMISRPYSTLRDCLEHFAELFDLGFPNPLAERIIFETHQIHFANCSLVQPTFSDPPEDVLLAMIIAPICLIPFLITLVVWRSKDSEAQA
T2 sequence (Q16602 23-461): as the sequence (Q16602 23-461) above
T2 sequence (O60895 43-175): as the sequence (O60895 43-175) above

SMILES	EC50 [1] [µM]	EC50 [2] [µM]
CC[C@H](C)[C@H](NC(=O)[C@H](CCC(N)=O)NC(=O)[C@H](Cc1c[nH]cn1)NC(=O)[C@H](C)NC(=O)[C@H](CC(C)C)NC(=O)[C@H](CCCCN)NC(=O)[C@H](CCC(N)=O)NC(=O)[C@@H](NC(=O)[C@@H](NC(=O)[C@@H]1CC(=O)NCC[C@H](NC(=O)CNC(=O)CN)C(=O)N[C@@H](CCCNC(=N)N)C(=O)N[C@@H](Cc2ccccc2)C(=O)NCC(=O)N[C@@H]([C@@H](C)O)C(=O)N1)[C@@H](C)O)C(C)C)C(=O)N[C@@H](Cc1ccc(O)cc1)C(=O)N[C@@H](CCC(N)=O)C(=O)N[C@@H](Cc1ccccc1)C(=O)N[C@H](C(=O)N[C@@H](CC(=O)O)C(=O)N[C@@H](CCCCN)C(=O)N[C@@H](CC(=O)O)C(=O)N[C@@H](CCCCN)C(=O)N[C@@H](CC(=O)O)C(=O)N[C@@H](CC(N)=O)C(=O)N[C@H](C(=O)N[C@@H](C)C(=O)N1CCC[C@H]1C(=O)N[C@@H](CCCNC(=N)N)C(=O)N[C@@H](CO)C(=O)N[C@@H](CCCCN)C(=O)N[C@H](C(=O)N[C@@H](CO)C(=O)N1CCC[C@H]1C(=O)N[C@@H](CCC(N)=O)C(=O)NCC(=O)N[C@@H](Cc1ccc(O)cc1)C(N)=O)[C@@H](C)CC)C(C)C)[C@@H](C)O [Example 5, ((2S,5S,11S,14S,20S)-20-(2-(2-aminoacetamido)acetamido)-5-benzyl-2-(3-guanidinopropyl)-11-((R)-1-hydroxyethyl)-3,6,9,12,16,21-hexaoxo-1,4,7,10,13,17-hexaazacyclohenicosane-14-carbonyl)-L-threonyl-ADM(22-52)] (H-GG[Dab]RFGTDTVQKLAHQIYQFTDKDKDNVAPRSKISPQGY-NH2; lactam 3-8)	> 1	0.112
CC[C@H](C)[C@H](NC(=O)[C@H](CCC(N)=O)NC(=O)[C@H](Cc1c[nH]cn1)NC(=O)[C@H](C)NC(=O)[C@H](CC(C)C)NC(=O)[C@H](CCCCN)NC(=O)[C@H](CCC(N)=O)NC(=O)[C@@H](NC(=O)[C@@H](NC(=O)[C@@H]1CCCC[C@H](NC(=O)CNC(=O)CN)C(=O)N[C@@H](CCCNC(=N)N)C(=O)N[C@@H](Cc2ccccc2)C(=O)NCC(=O)N[C@@H]([C@@H](C)O)C(=O)N1)[C@@H](C)O)C(C)C)C(=O)N[C@@H](Cc1ccc(O)cc1)C(=O)N[C@@H](CCC(N)=O)C(=O)N[C@@H](Cc1ccccc1)C(=O)N[C@H](C(=O)N[C@@H](CC(=O)O)C(=O)N[C@@H](CCCCN)C(=O)N[C@@H](CC(=O)O)C(=O)N[C@@H](CCCCN)C(=O)N[C@@H](CC(=O)O)C(=O)N[C@@H](CC(N)=O)C(=O)N[C@H](C(=O)N[C@@H](C)C(=O)N1CCC[C@H]1C(=O)N[C@@H](CCCNC(=N)N)C(=O)N[C@@H](CO)C(=O)N[C@@H](CCCCN)C(=O)N[C@H](C(=O)N[C@@H](CO)C(=O)N1CCC[C@H]1C(=O)N[C@@H](CCC(N)=O)C(=O)NCC(=O)N[C@@H](Cc1ccc(O)cc1)C(N)=O)[C@@H](C)CC)C(C)C)[C@@H](C)O [Example 17, ((2S,5S,11S,14S,19S)-19-(2-(2-aminoacetamido)acetamido)-5-benzyl-2-(3-guanidinopropyl)-11-((R)-1-hydroxyethyl)-3,6,9,12,20-pentaoxo-1,4,7,10,13-pentaazacycloicosane-14-carbonyl)-L threonyl-ADM(22-52)]	> 1	> 1
CC[C@H](C)[C@H](NC(=O)[C@H](CCC(N)=O)NC(=O)[C@H](Cc1c[nH]cn1)NC(=O)[C@H](C)NC(=O)[C@H](CC(C)C)NC(=O)[C@H](CCCCN)NC(=O)[C@H](CCC(N)=O)NC(=O)[C@@H](NC(=O)[C@@H](NC(=O)[C@@H]1CCCNC(=O)CC[C@H](NC(=O)CNC(=O)CN)C(=O)N[C@@H](CCCNC(=N)N)C(=O)N[C@@H](Cc2ccccc2)C(=O)NCC(=O)N[C@@H]([C@@H](C)O)C(=O)N1)[C@@H](C)O)C(C)C)C(=O)N[C@@H](Cc1ccc(O)cc1)C(=O)N[C@@H](CCC(N)=O)C(=O)N[C@@H](Cc1ccccc1)C(=O)N[C@H](C(=O)N[C@@H](CC(=O)O)C(=O)N[C@@H](CCCCN)C(=O)N[C@@H](CC(=O)O)C(=O)N[C@@H](CCCCN)C(=O)N[C@@H](CC(=O)O)C(=O)N[C@@H](CC(N)=O)C(=O)N[C@H](C(=O)N[C@@H](C)C(=O)N1CCC[C@H]1C(=O)N[C@@H](CCCNC(=N)N)C(=O)N[C@@H](CO)C(=O)N[C@@H](CCCCN)C(=O)N[C@H](C(=O)N[C@@H](CO)C(=O)N1CCC[C@H]1C(=O)N[C@@H](CCC(N)=O)C(=O)NCC(=O)N[C@@H](Cc1ccc(O)cc1)C(N)=O)[C@@H](C)CC)C(C)C)[C@@H](C)O [Example 19, ((2S,5S,11S,14S,22S)-22-(2-(2-aminoacetamido)acetamido)-5-benzyl-2-(3-guanidinopropyl)-11-((R)-1-hydroxyethyl)-3,6,9,12,19,23-hexaoxo-1,4,7,10,13,18-hexaazacyclotricosane-14-carbonyl)-L-threonyl-ADM(22-52)] (H-GGERFGT[Orn]TVQKLAHQIYQFTDKDKDNVAPRSKISPQGY-NH2; lactam 3-8)	> 1	0.021
CC[C@H](C)[C@H](NC(=O)[C@H](CCC(N)=O)NC(=O)[C@H](Cc1c[nH]cn1)NC(=O)[C@H](C)NC(=O)[C@H](CC(C)C)NC(=O)[C@H](CCCCN)NC(=O)[C@H](CCC(N)=O)NC(=O)[C@@H](NC(=O)[C@@H](NC(=O)[C@@H]1CCC(=O)NCCCC[C@H](NC(=O)CNC(=O)CN)C(=O)N[C@@H](CCCNC(=N)N)C(=O)N[C@@H](Cc2ccccc2)C(=O)NCC(=O)N[C@@H]([C@@H](C)O)C(=O)N1)[C@@H](C)O)C(C)C)C(=O)N[C@@H](Cc1ccc(O)cc1)C(=O)N[C@@H](CCC(N)=O)C(=O)N[C@@H](Cc1ccccc1)C(=O)N[C@H](C(=O)N[C@@H](CC(=O)O)C(=O)N[C@@H](CCCCN)C(=O)N[C@@H](CC(=O)O)C(=O)N[C@@H](CCCCN)C(=O)N[C@@H](CC(=O)O)C(=O)N[C@@H](CC(N)=O)C(=O)N[C@H](C(=O)N[C@@H](C)C(=O)N1CCC[C@H]1C(=O)N[C@@H](CCCNC(=N)N)C(=O)N[C@@H](CO)C(=O)N[C@@H](CCCCN)C(=O)N[C@H](C(=O)N[C@@H](CO)C(=O)N1CCC[C@H]1C(=O)N[C@@H](CCC(N)=O)C(=O)NCC(=O)N[C@@H](Cc1ccc(O)cc1)C(N)=O)[C@@H](C)CC)C(C)C)[C@@H](C)O [Example 2, ((2S,5S,11S,14S,23S)-23-(2-(2-aminoacetamido)acetamido)-5-benzyl-2-(3-guanidinopropyl)-11-((R)-1-hydroxyethyl)-3,6,9,12,17,24-hexaoxo-1,4,7,10,13,18-hexaazacyclotetracosane-14-carbonyl)-L-threonyl-ADM(22-52)] (H-GGKRFGTETVQKLAHQIYQFTDKDKDNVAPRSKISPQGY-NH2; lactam 3-8)	> 1	> 1
CC[C@H](C)[C@H](NC(=O)[C@H](CCC(N)=O)NC(=O)[C@H](Cc1c[nH]cn1)NC(=O)[C@H](C)NC(=O)[C@H](CC(C)C)NC(=O)[C@H](CCCCN)NC(=O)[C@H](CCC(N)=O)NC(=O)[C@@H](NC(=O)[C@@H](NC(=O)[C@@H]1CNC(=O)C[C@H](NC(=O)CNC(=O)CN)C(=O)N[C@@H](CCCNC(=N)N)C(=O)N[C@@H](Cc2ccccc2)C(=O)NCC(=O)N[C@@H]([C@@H](C)O)C(=O)N1)[C@@H](C)O)C(C)C)C(=O)N[C@@H](Cc1ccc(O)cc1)C(=O)N[C@@H](CCC(N)=O)C(=O)N[C@@H](Cc1ccccc1)C(=O)N[C@H](C(=O)N[C@@H](CC(=O)O)C(=O)N[C@@H](CCCCN)C(=O)N[C@@H](CC(=O)O)C(=O)N[C@@H](CCCCN)C(=O)N[C@@H](CC(=O)O)C(=O)N[C@@H](CC(N)=O)C(=O)N[C@H](C(=O)N[C@@H](C)C(=O)N1CCC[C@H]1C(=O)N[C@@H](CCCNC(=N)N)C(=O)N[C@@H](CO)C(=O)N[C@@H](CCCCN)C(=O)N[C@H](C(=O)N[C@@H](CO)C(=O)N1CCC[C@H]1C(=O)N[C@@H](CCC(N)=O)C(=O)NCC(=O)N[C@@H](Cc1ccc(O)cc1)C(N)=O)[C@@H](C)CC)C(C)C)[C@@H](C)O [Example 26, ((3S,6S,12S,15S,18S)-18-(2-(2-aminoacetamido)acetamido)-12-benzyl-15-(3-guanidinopropyl)-6-((R)-1-hydroxyethyl)-5,8,11,14,17,20-hexaoxo-1,4,7,10,13,16-hexaazacycloicosane-3-carbonyl)-L-threonyl-ADM(22-52)] (H-GGDRFGT[Dap]TVQKLAHQIYQFTDKDKDNVAPRSKISPQGY-NH2; lactam 3-8)	0.032	> 1
